Results taken from US20240366553A1, “ASPARTIC ACID COPPER COMPLEX, AND USE THEREOF” (GUANGZHOU INSIGHTER BIOTECHNOLOGY CO., LTD., priority 2021, published 2024).
Read-outs that look alike come from different tables or passages of the source.

How the values were obtained:
[1] = test system: Lingnan yellow-feathered, fast-growing, and large-sized broilers; settings: for Average feed consumption / Average weight gain / Feed-to-meat ratio / Survival rate (%) / Relative weight gain rate (%): broilers aged 1 to 21 days; for Relative weight gain rate (%): relative to control group
Description: (§1) Experimental animals: 900 one-day-old Lingnan yellow-feathered, fast-growing, and large-sized broilers; 150 weaned piglets;
(§2) Feeds: basal feed for chickens and basal feed for pigs that contain no antimicrobial drugs, copper sources and growth promoters;
(§3) Experimental samples: compound 1, compound 2, compound 3, compound 4, compound 5, compound 6, compound 7,
900 one-day-old Lingnan yellow-feathered, fast-growing, and large-sized broilers were randomly divided into 18 groups (50 broilers/group). […] The broilers had free access to food. The weight gain and feed conversion of the experimental chickens (aged from 1 to 21 days) in each experimental group were recorded.

weaned piglets = settings: for Average weight gain / Feed-to-meat ratio / Survival rate (%) / Total feed consumption / Total weight gain / Relative weight gain rate (%): weaned piglets, 30 days; for Total feed consumption / Total weight gain: 10 pigs; for Relative weight gain rate (%): control group = 100
Description: as §1, §2, §3
150 weaned piglets were grouped according to Table 2 (10 piglets/group). […] The piglets had free access to food. The weight gain and feed conversion of the experimental pigs in each experimental group were recorded within 30 days after […] weaning.

[2] = test system: black carp (subyearlings); test: Use of aspartic acid copper complex in aquaculture feeds (black carp breeding experiment); format: in vivo; settings: 30 mg/kg in feed (as copper ions), 8 weeks
Description: Experimental fishes: The experimental fishes used were black carp (subyearlings), which were provided by the Dafeng fish nursery (Huizhou city, Guangdong province). Healthy and active fingerling black carps (uniform in size) were fed for 4 weeks in a big net cage (4×2×1.5 m^3) and then the formal breeding experiment was carried out. The experimental systems were small floating net cages (1.1×1.1×1.1 m^3 in size). Each small net cage was provided with an air-filling head, which allowed for continuous inflation of the cages for 24 h a day. The small net cages and the acclimatization net cage were all placed in a 3500 m^2 pond in the experimental field. […] During the trial, 480 black carps (fasted for 1 d) were randomly divided into 10 groups, with 4 replicates for each group and 12 fishes in each replicate. After weighing as a whole, the black carps were randomly placed into […] and fed with different experimental feeds.
Experimental feeds: The experimental feeds were formulated following the formula in Table 5. According to Table 6, different copper element supplements (calculated based on the copper ions) were added to the feeds in different experimental groups, respectively. The feed raw materials were subjected to ultrafine grinding and then granulated into floating expanded feeds (3 mm) using an expansion machine from Jiangsu Muyang Corporation. The demolding temperature was 130° C. 3% soybean oil was externally sprayed using an oil spraying device. The finished product was sealed and stored in a cool place for later use.
Experimental management: During the trial, the carps were manually fed in a restricted dose. The feeding dose was adjusted once a week, and the doses for all groups (based on the initial body weight) were completely consistent. The carps were fed twice a day (at 7:30 and 15:00). The experiment lasted for 8 weeks. During the trial, the water quality was regularly monitored, and throughout the breeding, the water temperature was kept at 26.88±3.08° C., DO>5.0 mg O L^−1, pH 7.8, ammonia nitrogen<0.50 mg NL^−1, and nitrite-nitrogen<0.05 mg N L^−1.
Parametric statistics: During the trial, the carps in each net cage were weighed as a whole one day after discontinuation of feeding, and the average weight gain (g) and feed-to-meat ratio were calculated. The calculation formulas are as follows:
Average weight gain (g)=Average final weight−Average initial weight; Feed-to-meat ratio=Food intake/Weight gain of fishes;

[3] = 5 mg/kg in feed (as copper ion)
[4] = 50 mg/kg in feed (as copper ion)
[5] = 100 mg/kg in feed (as copper ion)
[6] = 200 mg/kg in feed (as copper ion)
[7] = 300 mg/kg in feed (as copper ion)
[8] = group 1-30: 30 mg/kg in feed (as copper ion)
[9] = 8 mg/kg in feed (as copper ion)
[10] = group 1-200: 200 mg/kg in feed (as copper ion)

N[C@@H](CC(=O)[O-])C(=O)[O-].O.O.[Cu+2] [Compound 1, [(Cu(II))(L-Asp)(H2O)2]]
Average feed consumption [1, 3]: 916 g | Average weight gain [1, 3]: 497 g | Feed-to-meat ratio [1, 3]: 1.843 | Survival rate (%) [1, 3]: 100% | Relative weight gain rate (%) [1, 3]: 104.9% | Average feed consumption [1, 4]: 923 g | Average weight gain [1, 4]: 518 g | Feed-to-meat ratio [1, 4]: 1.782 | Survival rate (%) [1, 4]: 100% | Relative weight gain rate (%) [1, 4]: 109.3% | Average feed consumption [1, 5]: 970 g | Average weight gain [1, 5]: 546 g | Feed-to-meat ratio [1, 5]: 1.777 | Survival rate (%) [1, 5]: 100% | Relative weight gain rate (%) [1, 5]: 115.2% | Average feed consumption [1, 6]: 1004 g | Average weight gain [1, 6]: 567 g | Feed-to-meat ratio [1, 6]: 1.771 | Survival rate (%) [1, 6]: 100% | Relative weight gain rate (%) [1, 6]: 119.6% | Average feed consumption [1, 7]: 926 g | Average weight gain [1, 7]: 526 g | Feed-to-meat ratio [1, 7]: 1.760 | Survival rate (%) [1, 7]: 100% | Relative weight gain rate (%) [1, 7]: 111.0% | Dose effect in the experimental results (broilers) ([1]; addition amount of 50-100 mg/kg): exhibited a dose effect | Physical characteristics of the experimental chickens ([1]; experimental groups of compounds 1-7): normal physical characteristics | Average feed consumption [1, 8]: 919 g | Average weight gain [1, 8]: 511 g | Feed-to-meat ratio [1, 8]: 1.798 | Survival rate (%) [1, 8]: 100% | Relative weight gain rate (%) [1, 8]: 107.8% | Average weight gain (weaned piglets; [9]): 11.26 kg | Feed-to-meat ratio (weaned piglets; [9]): 2.268 | Survival rate (%) (weaned piglets; [9]): 100% | Total feed consumption (weaned piglets; [9]): 255.34 kg | Total weight gain (weaned piglets; [9]): 112.6 kg | Relative weight gain rate (%) (weaned piglets; [9]): 103.30% | Average weight gain (weaned piglets; [4]): 12.12 kg | Feed-to-meat ratio (weaned piglets; [4]): 2.121 | Survival rate (%) (weaned piglets; [4]): 100% | Total feed consumption (weaned piglets; [4]): 257.08 kg | Total weight gain (weaned piglets; [4]): 121.2 kg | Relative weight gain rate (%) (weaned piglets; [4]): 111.19% | Average weight gain (weaned piglets; [5]): 12.21 kg | Feed-to-meat ratio (weaned piglets; [5]): 2.112 | Survival rate (%) (weaned piglets; [5]): 100% | Total feed consumption (weaned piglets; [5]): 257.86 kg | Total weight gain (weaned piglets; [5]): 122.1 kg | Relative weight gain rate (%) (weaned piglets; [5]): 112.02% | Dose effect on improving the production performance of the experimental pigs (weaned piglets; 8-200 mg/kg groups): exhibited a dose effect | Growth-promoting effect and feed conversion rate versus high-level copper sulfate group (weaned piglets; dose of 50 mg/kg, comparator copper sulfate 250 mg/kg): close to those achieved in the high-level copper sulfate group | Average weight gain (weaned piglets; [8]): 11.66 kg | Feed-to-meat ratio (weaned piglets; [8]): 2.205 | Survival rate (%) (weaned piglets; [8]): 100% | Total feed consumption (weaned piglets; [8]): 257.09 kg | Total weight gain (weaned piglets; [8]): 116.6 kg | Relative weight gain rate (%) (weaned piglets; [8]): 106.97% | Average weight gain (weaned piglets; [10]): 12.34 kg | Feed-to-meat ratio (weaned piglets; [10]): 2.093 | Survival rate (%) (weaned piglets; [10]): 100% | Total feed consumption (weaned piglets; [10]): 258.28 kg | Total weight gain (weaned piglets; [10]): 123.4 kg | Relative weight gain rate (%) (weaned piglets; [10]): 113.21% | Improvement in the feed conversion of the experimental pigs compared with compound 4 (weaned piglets; used at the same doses (50 mg/kg)): about 2 fold | Average weight gain [2]: 357 g | Feed-to-meat ratio [2]: 1.401
